Read-outs that look alike come from different tables or passages of the source.

In experiment [1] the test system is Plasmodium berghei (Pb-Luc) exoerythrocytic-stage parasites. The following applies: for normalised signal at concentration 10 (first series): concentration 10, first series of dose columns; for normalised signal at concentration 10 (second series): concentration 10, second series of dose columns; for IC50: read-out: PbLuc_IC50, Broad compounds, dose response top concentration 10; for IC50 / PbLuc_max_inhibition (%): sheet "2nd round".

Another experiment relates to HepG2-A16-CD81EGFP cells. The following applies: for IC50: read-out: Tox_IC50, HepG2 cytotoxicity.
Setting [2] is: sheet 2nd round, maximal inhibition in dose response.

Regarding `CC(C)[C@@H]1COCc2cnnn2CCC[C@H](C)C(=O)N1` [BRD-K01882341-001-02-9], in experiment [1], the “normalised signal at concentration 0.000508053 (first series)” value was found to be 0.8014, the “normalised signal at concentration 0.000508053 (second series)” value is 0.9562, the “normalised signal at concentration 0.00152416 (first series)” value was 0.9047 and the “normalised signal at concentration 0.00152416 (second series)” value is given as 0.8755. Moreover, in experiment [1], the “normalised signal at concentration 0.00457247 (first series)” value is on record as 0.9797, the “normalised signal at concentration 0.00457247 (second series)” value came to 1.034, the “normalised signal at concentration 0.0137174 (first series)” value turned out to be 0.9629 and the “normalised signal at concentration 0.0137174 (second series)” value worked out at 0.9854. Further, in experiment [1], the “normalised signal at concentration 0.0411523 (first series)” value stood at 0.8726, the “normalised signal at concentration 0.0411523 (second series)” value was 0.8168, the “normalised signal at concentration 0.123457 (first series)” value was 0.9418 and the “normalised signal at concentration 0.123457 (second series)” value worked out at 1.121. In experiment [1], the “normalised signal at concentration 0.37037 (first series)” value is reported as 0.9345, the “normalised signal at concentration 0.37037 (second series)” value is 0.7926, the “normalised signal at concentration 1.11111 (first series)” value is listed as 0.8828 and the “normalised signal at concentration 1.11111 (second series)” value came to 0.9806. In experiment [1], the “normalised signal at concentration 3.33333 (first series)” value is recorded as 0.9641, the “normalised signal at concentration 3.33333 (second series)” value was 0.9379, the “normalised signal at concentration 10 (first series)” value stood at 1.091 and the “normalised signal at concentration 10 (second series)” value came out at 0.8693. Also, in experiment [1], the IC50 was above 10 µM and the “PbLuc_max_inhibition (%)” value was 21%. Further, in the experiment on HepG2-A16-CD81EGFP cells (sheet "2nd round"), the IC50 was above 10 µM and the “Tox_max_inhibition (%)” value came to 4.53%.
As to `COc1ccc(NC(=O)N(C)C[C@H]2Oc3c(NC(=O)CCCCCC(=O)Nc4ccccc4N)cccc3C(=O)N([C@@H](C)CO)C[C@H]2C)cc1` [BRD-K03339938-001-01-9], in experiment [1], the “normalised signal at concentration 0.000508053 (first series)” value stood at 1.103, the “normalised signal at concentration 0.000508053 (second series)” value is 1.02, the “normalised signal at concentration 0.00152416 (first series)” value was determined as 0.9211 and the “normalised signal at concentration 0.00152416 (second series)” value is 0.7891. Also, in experiment [1], the “normalised signal at concentration 0.00457247 (first series)” value came out at 0.9975, the “normalised signal at concentration 0.00457247 (second series)” value came out at 0.8582, the “normalised signal at concentration 0.0137174 (first series)” value stood at 0.9216 and the “normalised signal at concentration 0.0137174 (second series)” value was 0.8637. For the same molecule, in experiment [1], the “normalised signal at concentration 0.0411523 (first series)” value stood at 0.9804, the “normalised signal at concentration 0.0411523 (second series)” value is 0.9024, the “normalised signal at concentration 0.123457 (first series)” value is listed as 0.8136 and the “normalised signal at concentration 0.123457 (second series)” value is given as 0.9499. Besides, in experiment [1], the “normalised signal at concentration 0.37037 (first series)” value stood at 0.9387, the “normalised signal at concentration 0.37037 (second series)” value was determined as 1.008, the “normalised signal at concentration 1.11111 (first series)” value worked out at 0.9514 and the “normalised signal at concentration 1.11111 (second series)” value came out at 0.9972. In experiment [1], the “normalised signal at concentration 3.33333 (first series)” value stood at 1.011, the “normalised signal at concentration 3.33333 (second series)” value was determined as 1.0698, the “normalised signal at concentration 10 (first series)” value was found to be 1.4773 and the “normalised signal at concentration 10 (second series)” value is 1.187. In experiment [1], the IC50 was above 10 µM and the “PbLuc_max_inhibition (%)” value is recorded as 21%. Further, in the experiment on HepG2-A16-CD81EGFP cells (sheet "2nd round"), the IC50 was above 10 µM and the “Tox_max_inhibition (%)” value is given as 4.46%.
With `COc1ccccc1C#Cc1ccc([C@H]2[C@@H](C#N)N(C(=O)C3CCCCC3)[C@H]2CO)cc1` [BRD-K87117984-001-01-1], the IC50 in the experiment with HepG2-A16-CD81EGFP cells (sheet 2nd round) was determined as 9.79 µM. For the same molecule, the “Tox_max_inhibition (%)” value in the experiment with HepG2-A16-CD81EGFP cells (setting [2]) is reported as 57%.
In the case of `C[C@@H]1CCCCO[C@@H](CN(C)S(=O)(=O)c2ccccc2)[C@H](C)CN([C@H](C)CO)C(=O)c2cc(NC(=O)Nc3ccc4c(c3)OCO4)ccc2O1` [BRD-K87351697-001-01-4], in the experiment with HepG2-A16-CD81EGFP cells (sheet 2nd round), the IC50 is above 10 µM. The “Tox_max_inhibition (%)” value in the experiment with HepG2-A16-CD81EGFP cells (setting [2]) is recorded as 5%.
On to `C[C@@H]1CN([C@@H](C)CO)C(=O)Cc2cc(NC(=O)C3CCCCC3)ccc2O[C@H]1CN(C)Cc1ccc(Cl)c(Cl)c1` [BRD-K87663528-001-01-7], for which, in the experiment on HepG2-A16-CD81EGFP cells (sheet "2nd round"), the IC50 is above 10 µM and the “Tox_max_inhibition (%)” value amounted to 58%.
In the case of `CO[C@@H]1CN(C)C(=O)c2ccc(NC(=O)Nc3ccccc3F)cc2OC[C@@H](C)N(CC2CC2)C[C@H]1C` [BRD-K88085458-001-01-6], in the experiment with HepG2-A16-CD81EGFP cells (sheet "2nd round"), the IC50 is above 10 µM and the “Tox_max_inhibition (%)” value is reported as 6%.
Taken in the same sequence, the figures for `CCCNC(=O)N1[C@H](C#N)[C@H](c2ccc(-c3ccccc3F)cc2)[C@H]1CO` [BRD-K88402291-001-01-4] were above 10 µM and 3%.
With `O=C(Nc1ccccc1F)N1CCCCN2[C@H](CO)[C@H](c3ccc(/C=C/c4ccccc4)cc3)[C@H]2C1` [BRD-K88581921-001-01-3], in the experiment on HepG2-A16-CD81EGFP cells (sheet 2nd round), the IC50 was above 10 µM. In addition, in the experiment with HepG2-A16-CD81EGFP cells (setting [2]), the “Tox_max_inhibition (%)” value is given as 3%.
As to `O=C(Nc1ccc(Cl)cc1)N1C[C@@H]2[C@H](c3ccccc31)[C@@H](CO)N2CC1CCCCC1` [BRD-K89605819-001-01-4], in the experiment with HepG2-A16-CD81EGFP cells (sheet "2nd round"), the IC50 was above 10 µM and the “Tox_max_inhibition (%)” value stood at 4.75%.
For the molecule `N#C[C@@H]1[C@H](c2ccccc2C2=CCCCC2)[C@H](CO)N1S(=O)(=O)c1ccccc1` [BRD-K90570429-001-01-9], in the experiment with HepG2-A16-CD81EGFP cells (sheet "2nd round"), the IC50 was above 10 µM and the “Tox_max_inhibition (%)” value is recorded as 8%.
With `CO[C@@H]1CN(C)C(=O)c2ccc(NC(=O)NC(C)C)cc2OC[C@@H](C)N(Cc2ccccc2)C[C@H]1C` [BRD-K91191258-001-01-9], the IC50 in the experiment on HepG2-A16-CD81EGFP cells (sheet 2nd round) was above 10 µM. Further, the “Tox_max_inhibition (%)” value in the experiment on HepG2-A16-CD81EGFP cells (setting [2]) came out at 9%.
With `CN1C(=O)c2cc(NC(=O)c3ccc(C(F)(F)F)cc3)ccc2OC[C@H]2O[C@H](CC(=O)NCc3ccc4c(c3)OCO4)CC[C@@H]21` [BRD-K92009254-001-01-6], in the experiment with HepG2-A16-CD81EGFP cells (sheet "2nd round"), the IC50 worked out at 8.97 µM and the “Tox_max_inhibition (%)” value is listed as 53%.
In the case of `Cc1ccccc1-c1ccc([C@@H]2[C@H](CO)N3CCCCN(S(=O)(=O)Cc4ccccc4)C[C@@H]23)cc1` [BRD-K92048968-001-01-1], the IC50 in the experiment with HepG2-A16-CD81EGFP cells (sheet 2nd round) was above 10 µM. Also, the “Tox_max_inhibition (%)” value with HepG2-A16-CD81EGFP cells (setting [2]) came to 7%.
Consider `C[C@@H]1CN([C@@H](C)CO)C(=O)c2cccc(NC(=O)c3cnccn3)c2O[C@@H]1CN(C)Cc1ccc(-c2ccccc2)cc1` [BRD-K92545585-001-01-9], for which the IC50 in the experiment on HepG2-A16-CD81EGFP cells (sheet 2nd round) was above 10 µM. The “Tox_max_inhibition (%)” value with HepG2-A16-CD81EGFP cells (setting [2]) is 4.65%.
In the case of `C[C@@H]1CCCCO[C@H](CN(C)S(=O)(=O)c2ccccc2)[C@@H](C)CN([C@@H](C)CO)C(=O)c2cc(NC(=O)Nc3ccc4c(c3)OCO4)ccc2O1` [BRD-K94107458-001-01-0], in the experiment with HepG2-A16-CD81EGFP cells (sheet "2nd round"), the IC50 was above 10 µM and the “Tox_max_inhibition (%)” value was found to be 5%.
`O=C(Nc1ccc(F)cc1)N1C[C@@H]2[C@H](c3ccccc31)[C@@H](CO)N2Cc1ccccc1Cl` [BRD-K95406835-001-01-9]: the IC50 in the experiment on HepG2-A16-CD81EGFP cells (sheet 2nd round) was above 10 µM. Also, in the experiment on HepG2-A16-CD81EGFP cells (setting [2]), the “Tox_max_inhibition (%)” value came to 4.68%.
In the case of `O=C(C1CC1)N1C[C@@H]2N[C@H](C1)C2c1ccc(-c2ccccc2F)cc1` (stereo partly drawn) [BRD-K95724677-019-01-8], the IC50 in the experiment with HepG2-A16-CD81EGFP cells (sheet 2nd round) was 3.72 µM. The “Tox_max_inhibition (%)” value with HepG2-A16-CD81EGFP cells (setting [2]) amounted to 93%.
For `C[C@@H]1CCCCO[C@@H](CN(C)Cc2ccc(Cl)c(Cl)c2)[C@@H](C)CN([C@@H](C)CO)C(=O)c2cc(NS(=O)(=O)c3cccs3)ccc2O1` [BRD-K97609851-001-01-5], in that order: above 10 µM and 39%.
Take `Cc1ccc(S(=O)(=O)N(C)C[C@H]2Oc3cc(C#CC4CCCC4)ccc3S(=O)(=O)N([C@@H](C)CO)C[C@H]2C)cc1` [BRD-K99467823-001-01-1]: the IC50 in the experiment with HepG2-A16-CD81EGFP cells (sheet 2nd round) is above 10 µM. Also, the “Tox_max_inhibition (%)” value in the experiment with HepG2-A16-CD81EGFP cells (setting [2]) was 31%.
Regarding `N#C[C@@H]1[C@H](c2ccccc2)[C@H](CO)N1C(=O)Nc1cccc(F)c1` [BRD-K99496840-001-01-9], the IC50 in the experiment on HepG2-A16-CD81EGFP cells (sheet 2nd round) was above 10 µM. Moreover, the “Tox_max_inhibition (%)” value with HepG2-A16-CD81EGFP cells (setting [2]) is 4.23%.

The values are drawn from publication PMC4890880 (ACS infectious diseases, 2016).
